# Laboratory results as given in patent US20260053811A1, “METHODS OF TREATING HYPERTENSION IN OBESE SUBJECTS” (Mineralys Therapeutics, Inc., priority 2022, published 2026).
# Test system: hypertensive subjects
# Assay: Seated automated office blood pressure (AOBP) in randomized, placebo-controlled, dose-ranging study
# Format: in vivo, human
# Conditions: 100 mg QD, FAS; for Seated AOBP DBP change from baseline (CFB), Mean / Seated AOBP DBP, Mean / Seated AOBP SBP change from baseline (CFB), Mean / Seated AOBP SBP, Mean: Part 2
# Procedure: A randomized, double-blinded, placebo-controlled, dose-ranging, multicenter study was conducted to evaluate the effect of orally administered Compound A HBr on blood pressure for the treatment of hypertension in male and female subjects ≥18 years of age.
# The study consists of two parts. For enrollment into Part 1 of the study, a subject's value of plasma renin activity (PRA) must be ≤1 ng/mL/h based on morning measurement. If the value of PRA >1 ng/mL/h based on morning measurement, then subjects may be eligible to enter Part 2 of the study.
# For Part 1, 163 enrolled subjects ≥18 years of age were randomized into 6 equal treatment groups (1:1:1:1:1:1) to 12.5 mg BID, 25 mg BID, 12.5 mg QD, 50 mg QD, 100 mg QD, or placebo. After a review of interim clinical data, the 2 lowest dose levels (12.5 mg QD and 12.5 mg BID) were stopped for future randomization due to a lack of consistent meaningful reduction of blood pressure, but the patients randomized to that point remained in the study through completion. Thus, after the review of interim clinical data, subjects were randomized into 4 equal treatment groups (1:1:1:1) to 25 mg BID, 50 mg QD, 100 mg QD, or placebo.
# For Part 2, 36 enrolled subjects ≥18 years of age were randomized (5:1) to either 100 mg QD Compound A HBr or placebo such that the Compound A HBr treatment group consisted of approximately 30 subjects and the placebo treatment group will consist of approximately 6 subjects.
# Subjects orally administered the assigned study drug (Compound A HBr or placebo) according to the assigned dosing regimen for 8 weeks beginning on Study Day 1. All subjects in Part 1 (regardless of dosing group) received BID dosing to preserve the integrity of the blind; active drug is administered as the morning dose for all QD dose groups. Subjects returned to the research facility or were seen by the clinical investigator or approved home health care professional at the end of Study Weeks 1, 2, 3, 4, 5, 6, 7, and 8 (±2 days) for protocol-defined efficacy and safety assessments and procedures, assessment of adverse events (AEs), and confirmation of compliance with study drug usage. Subjects also completed a telephone visit and blood pressure (BP) check at home approximately 3 days post last dose of study drug. Subjects attended up to 14 full clinic visits, including a pre-Screening visit, a Screening/start of Placebo Run-in visit, a second visit during Placebo Run-in, a clinic visit to initiate the ABPM procedure, a Randomization visit, 8 weekly visits during double-blind treatment, and an end-of-study visit scheduled 4 weeks after the last study treatment for final efficacy and safety assessments.
# An automated oscillometric sphygmomanometer device was used to measure the subjects' systolic and diastolic blood pressure in office after approximately 5 minutes of rest in the seated position.
# The primary endpoint is the change in office-measured (mean of last 2 of 5 unattended measurements using an automated oscillometric sphygmomanometer device after approximately 5 minutes of rest in the seated position) systolic blood pressure (SBP) from baseline to the end of Study Week 8.
# Secondary endpoints of this study were: • (a) Change in 24-hour ambulatory blood pressure monitoring (ABPM) parameters (systolic and diastolic) from baseline to the end of Study Week 7. • (b) Change in office-measured SBP from baseline to the end of Study Weeks 1, 2, 3, 4, 5, 6, and 7. • (c) Change in office-measured diastolic blood pressure (DBP) from baseline to the end of Study Weeks 1, 2, 3, 4, 5, 6, 7, and 8. • (d) Proportion of subjects who achieve office-measured BP of ≤130/80 mm Hg by the end of Study Week 8.
structure (smiles),measurement,setting,value
CC(=O)N[C@H]1CC[C@H](NC(=O)CN2CCN(c3nncc(-c4ccc(C)cc4)n3)CC2)CC1 [Compound A HBr],"Seated AOBP DBP change from baseline (CFB), Mean (SD)","Week 4, Part 1",−6.36 (6.75) mmHg
same,"Seated AOBP DBP, Mean (SD)","Week 4, Part 1",71.60 (8.62) mmHg
same,"Seated AOBP SBP change from baseline (CFB), Mean (SD)","Week 4, Part 1",−14.60 (11.66) mmHg
same,"Seated AOBP SBP, Mean (SD)","Week 4, Part 1",129.76 (12.66) mmHg
same,"Seated AOBP DBP change from baseline (CFB), Mean",Week 4,−6.92 mmHg
same,"Seated AOBP DBP, Mean",Week 4,71.36 mmHg
same,"Seated AOBP SBP change from baseline (CFB), Mean",Week 4,−16.04 mmHg
same,"Seated AOBP SBP, Mean",Week 4,125.44 mmHg
same,"Seated AOBP DBP change from baseline (CFB), Mean (SD)","Week 5, Part 1",−5.36 (8.12) mmHg
same,"Seated AOBP DBP, Mean (SD)","Week 5, Part 1",72.60 (11.27) mmHg
same,"Seated AOBP SBP change from baseline (CFB), Mean (SD)","Week 5, Part 1",−13.40 (16.59) mmHg
same,"Seated AOBP SBP, Mean (SD)","Week 5, Part 1",130.96 (14.84) mmHg
same,"Seated AOBP DBP change from baseline (CFB), Mean",Week 5,−6.35 mmHg
same,"Seated AOBP DBP, Mean",Week 5,71.31 mmHg
same,"Seated AOBP SBP change from baseline (CFB), Mean",Week 5,−12.87 mmHg
same,"Seated AOBP SBP, Mean",Week 5,127.92 mmHg
same,"Seated AOBP DBP change from baseline (CFB), Mean (SD)","Week 6, Part 1",−3.33 (7.96) mmHg
same,"Seated AOBP DBP, Mean (SD)","Week 6, Part 1",74.77 (10.12) mmHg
same,"Seated AOBP SBP change from baseline (CFB), Mean (SD)","Week 6, Part 1",−6.62 (15.69) mmHg
same,"Seated AOBP SBP, Mean (SD)","Week 6, Part 1",138.73 (14.13) mmHg
same,"Seated AOBP DBP change from baseline (CFB), Mean",Week 6,−7.25 mmHg
same,"Seated AOBP DBP, Mean",Week 6,70.65 mmHg
same,"Seated AOBP SBP change from baseline (CFB), Mean",Week 6,−13.29 mmHg
same,"Seated AOBP SBP, Mean",Week 6,127.58 mmHg
same,"Seated AOBP DBP change from baseline (CFB), Mean (SD)","Week 7, Part 1",−4.12 (8.55) mmHg
same,"Seated AOBP DBP, Mean (SD)","Week 7, Part 1",73.48 (11.08) mmHg
same,"Seated AOBP SBP change from baseline (CFB), Mean (SD)","Week 7, Part 1",−11.04 (16.75) mmHg
same,"Seated AOBP SBP, Mean (SD)","Week 7, Part 1",134.32 (18.32) mmHg
same,"Seated AOBP DBP change from baseline (CFB), Mean",Week 7,−6.13 mmHg
same,"Seated AOBP DBP, Mean",Week 7,71.61 mmHg
same,"Seated AOBP SBP change from baseline (CFB), Mean",Week 7,−11.66 mmHg
same,"Seated AOBP SBP, Mean",Week 7,128.75 mmHg
same,"LSM Δ from Placebo, change from baseline in seated AOBP SBP (MMRM)","Week 8, Part 1",−7.81 mmHg
same,"LSM Δ with Placebo, seated AOBP DBP (MMRM)","Week 8, Part 1",−4.11 mmHg
same,"Modelled (MMRM) LSM (SEM) change from baseline, seated AOBP DBP","Week 8, Part 1",−5.75 (1.77) mmHg
same,"Modelled (MMRM) LSM (SEM) change from baseline, seated AOBP SBP","Week 8, Part 1",−11.92 (2.77) mmHg
same,"Seated AOBP DBP change from baseline (CFB), Mean (SD)","Week 8, Part 1",−5.46 (7.85) mmHg
same,"Seated AOBP DBP, Mean (SD)","Week 8, Part 1",73.00 (9.43) mmHg
same,"Seated AOBP SBP change from baseline (CFB), Mean (SD)","Week 8, Part 1",−14.08 (13.26) mmHg
same,"Seated AOBP SBP, Mean (SD)","Week 8, Part 1",131.28 (14.13) mmHg
same,Subjects with seated AOBP SBP/DBP ≤130/80 mmHg: No,"Week 8, Part 1",21 (70.0) n (%)
same,Subjects with seated AOBP SBP/DBP ≤130/80 mmHg: Yes,"Week 8, Part 1",9 (30.0) n (%)
same,"Seated AOBP DBP change from baseline (CFB), Mean",Week 8,−5.68 mmHg
same,"Seated AOBP DBP, Mean",Week 8,72.17 mmHg
same,"Seated AOBP SBP change from baseline (CFB), Mean",Week 8,−11.20 mmHg
same,"Seated AOBP SBP, Mean",Week 8,129.30 mmHg
